Source: publication PMC4280898, “Diazido Mixed-Amine Platinum(IV) Anticancer Complexes Activatable by Visible-Light Form Novel DNA Adducts” (Chemistry (Weinheim an Der Bergstrasse, Germany), 2013)
Like-named read-outs stand apart in the source and are kept apart here.

Tests used:
A2780 cells [1] = details: cited from earlier work
A2780cis cells [2] = details: cited from earlier work; for Resistance factor: A2780cis vs A2780
A2780 cells [3] = test: SRB proliferation assay for non-light-sensitive complexes, A2780; format: cell-based, human; details: ambient light, 24 h exposure, 72 h recovery
Experimental: (§1) Cytotoxicity of platinum(II) precursors: To investigate the relationship between the Pt^IV diazidodihydroxido complexes and their Pt^II dichlorido analogues trans-[PtCl2(Am1)(Am2)] (where Am=amine), the cytotoxicities of complexes trans-[PtCl2(MA)(Py)] (5) and trans-[PtCl2(MA)(Tz)] (6) towards A2780 and its cisplatin resistant sub-line A2780cis were determined. The toxicity was not photoinduced, as the complexes are not photoactive. Complexes 5 and 6 are highly cytotoxic towards A2780 and A2780cis cells compared to the reported trans-Pt^II compounds.[18]–[22] Complex 5 is about three-times more cytotoxic than complex 6 towards A2780 cells. […]
(§2) Cell Culture and Proliferation Assay for Non-light-sensitive Complexes
(§3) The A2780 ovarian cell line was obtained from the ECACC (European Collection of Animal Cell Culture, Salisbury, United Kingdom). The cells were maintained in RPMI 1640 media, which was supplemented with 10% foetal calf serum, 1% L-glutamine, and 1% penicillin/streptomycin. All cells were grown at 310 K in an humidified atmosphere containing 5% CO2. Stock solutions of the Pt complexes were freshly prepared in DMSO to assist dissolution and then diluted into saline and medium (maximum final concentration of DMSO 1% and saline 6%). After plating 5000 A2780 cells per well on day 1, Pt complexes were added to the cancer cells on day 3 at concentrations ranging from 0.01 to 100 µM, depending on the preliminary activity data obtained in screening assays. Cells were exposed to the complexes for 24 h, washed with PBS, supplied with fresh medium, and allowed to grow for three doubling times (72 h), and then the protein content (proportional to cell survival) was measured using the sulforhodamine B (SRB) assay.[7] The standard errors are based on two independent experiments of three replicates each.[8]

A2780cis cells [4] = test: SRB proliferation assay for non-light-sensitive complexes, A2780cis; format: cell-based, human
Experimental: as §1, §2, §3

A2780 cells [5] = test: Constant challenge proliferation (MTT) assay, A2780; format: cell-based, human; details: conventional constant challenge proliferation assay
Text: (§4) It should be noted that the phototoxicity assay is not a proliferation assay.

A2780cis cells [6] = test: Constant challenge proliferation (MTT) assay, A2780cis; format: cell-based, human; details: conventional constant challenge proliferation assay
Text: as §4

HMGB1 protein [7] = target: T1, HMGB1 protein (Homo sapiens, UniProt P09429); test: HMGB1 recognition of platinated 50 bp duplex, gel mobility shift assay; format: binding; details: 50 bp duplex modified in the dark
T1 sequence (P09429 1-215): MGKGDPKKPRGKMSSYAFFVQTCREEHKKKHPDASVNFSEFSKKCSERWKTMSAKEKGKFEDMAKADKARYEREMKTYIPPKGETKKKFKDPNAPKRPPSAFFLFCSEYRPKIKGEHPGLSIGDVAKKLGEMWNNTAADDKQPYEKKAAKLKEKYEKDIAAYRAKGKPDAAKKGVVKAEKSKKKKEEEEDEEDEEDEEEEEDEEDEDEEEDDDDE
Text: HMGB1 protein recognition: The interactions of high mobility group protein B1 (HMGB1) with a 50 bp duplex DNA adducts formed by 1 or 2 under irradiation conditions and 5 or 6 in the dark were investigated using a gel mobility shift assay.
Figure 13 Recognition by HMGB1 protein of platinated DNA. Affinity of full-length HMGB1 to non-modified (control) DNA (lanes 1 and 2) or DNA modified by cisplatin (7) in the dark (lanes 3 and 4), 5 in the dark (lanes 5 and 6), 6 in the dark (lanes 7 and 8), photoactivated 1 (420 nm light, lanes 9 and 10) or photoactivated 2 (420 nm light, lanes 11 and 12). Lanes 1, 3, 5, 7, 9, 11, no protein added; lanes 2, 4, 6, 8, 10, 12, 700 ng HMGB1 added.

calf thymus DNA [8] = details: in the dark; cited from earlier work
calf thymus DNA [9] = details: in the dark; ref 32b; cited from earlier work
pSP73KB plasmid DNA = details: in the dark; ref 32b; cited from earlier work
pUC19 plasmid DNA = details: in the dark; cited from earlier work
[10] = tested on: 212 bp NdeI–HpaI fragment of pSP73KB DNA; details: in the dark, cited from earlier work
[11] = set-up: method as in earlier work; details: 310 K; cited from earlier work
DNA = tested on: DNA; set-up: method as in PMID 1827334; details: ref 3a; cited from earlier work
[12] = tested on: 212 bp NdeI–HpaI fragment of pSP73KB DNA; test: Transcription mapping of DNA adducts (T7 RNA polymerase); format: biochemical; details: in the dark; rb=0.01
Experimental: Sequence preference of DNA adducts: Transcription mapping experiments were performed to determine the DNA binding sites for Pt complexes. The experiments were carried out using a linear 212 bp DNA fragment (sequence in Figure 9 B), randomly modified by transplatin (8), cisplatin (7), 5 or 6 in the dark or by 1 and 2 photoactivated with blue light (420 nm) at rb=0.01 (rb is defined as the number of the molecules of platinum complex coordinated per nucleotide residue), for RNA synthesis by T7 RNA polymerase (Figure 9 A, lanes 8, 7, 5, 6, 1 and 2, respectively). RNA synthesis on the template modified by the platinum complexes produced fragments of defined sizes (Figure 9 A), which indicate the sites where RNA synthesis was prematurely terminated. It should be noted that RNA synthesis by T7 RNA polymerase is prematurely terminated only due to the platinum adducts on the template strand.[23] […] The ability to bind to A and C sites is consistent with the result from AMP and CMP binding experiments (Figure S18 in the Supporting Information).
Figure 9 Inhibition of RNA synthesis by T7 RNA polymerase on the NdeI–HpaI fragment of pSP73KB plasmid DNA modified by complexes 5 or 6, cisplatin (7) or transplatin (8) in the dark, or with photoactivated 1 or 2 (420 nm light). A) Autoradiogram of a polyacrylamide (6 %)/urea (8 M) sequencing gel. […]
assayed by differential pulse polarography for free, unbound platinum.[16] The amount of platinum bound to DNA was calculated by subtracting the amount of free (unbound) platinum from the total amount of platinum present in the reaction. […]
This fragment contained T7 RNA polymerase promoter (in the upper strand close to its 3'-end). […] The fragments produced in RNA synthesis on the template modified by the platinum complexes were analysed by a 6% polyacrylamide/8M urea sequencing gel.
Quantification of DNA adducts […]
Platinum associated with DNA was assessed by flameless atomic absorption […]
Quantification of DNA interstrand cross-links […]

HMGB1 protein [13] = target: T1, HMGB1 protein; details: in the dark; footnote a: taken from literature; cited from earlier work

Row | Compound | IC50 (A2780 cells [1]) [µM] | Resistance factor (A2780cis cells [2]) | IC50 (A2780cis cells [2]) [µM] | other results
1 | CC(C)[NH2+][Pt-2]([Cl])([Cl])[n+]1ccn(C)c1 | 21 ± 0.6 | 0.66 | 14 ± 3.5 | 
2 | N.N.[Cl][Pt][Cl] [Complex 7, cis-[PtCl2(NH3)2]] |  |  |  | IC50 (A2780 cells [3]): 1.5 ± 0.3 µM; Resistance factor (A2780cis cells [4]; A2780cis vs A2780, SRB assay): 7.0; IC50 (A2780cis cells [4]; ambient light, 24 h exposure, 72 h recovery, SRB): 10.5 ± 0.3 µM; IC50 (A2780 cells [5]): 0.5 µM; IC50 (A2780cis cells [6]): 11 µM; HMGB1 protein recognition (HMGB1 protein [7]): strongly bound by HMGB1; Pt bound after 24 h (calf thymus DNA [8]): 100[36] %; Bifunctional adducts after 24 h (calf thymus DNA [9]): 97–99[32b] %; Interstrand cross-link (pSP73KB plasmid DNA): 6[32b] %; Unwinding angle (pUC19 plasmid DNA): 13[25] °; Sequence specificity ([10]; ref 30c, 37): GG, (GA)[30c], [37]; Time for binding to 5′-GMP to reach 50 % [11]: 7 to 8 h; d(ApG) 1,2-intrastrand cross-links, share of all adducts (DNA): 20–25%; d(GpG) 1,2-intrastrand cross-links, share of all adducts (DNA): 60–65%
3 | N.N.[Cl][Pt+2][Cl] [Complex 8, transplatin] | > 200 |  |  | Sequence specificity [12]: stop sites mainly at G and C; Pt bound after 24 h (calf thymus DNA [8]): 100[36] %; Bifunctional adducts after 24 h (calf thymus DNA [9]): 50[32b] %; Interstrand cross-link (pSP73KB plasmid DNA): 12[32b] %; Unwinding angle (pUC19 plasmid DNA): 9[25] °; Sequence specificity ([10]; ref 32b): G, C[32b]; HMGB1 protein recognition (HMGB1 protein [13]): no ^[a]
4 | CCC(C)C[NH][Pt]([Cl])[Cl].N (stereo not drawn) [trans-[PtCl2(NH3)(2-methyl-butylamine)]] | 1.7 | 5.5 | 9.3 | 
5 | Cc1cc[n+]([Pt@SP2-2]([NH3+])([Cl])[Cl])cc1 [trans-[PtCl2(NH3)(4-picoline)]] | 7 ± 1 | 11 | 80 ± 5 | 
6 | COC(C)=N.N.[Cl][Pt][Cl] [trans-[PtCl2(NH3)(HN=C(OCH3)CH3)]] | 1.3 ± 0.3 | 5.4 | 7 ± 1.3 | 
7 | C1CNCCN1.N.[Cl][Pt][Cl] [trans-[PtCl2(NH3)(piperazine)]] | 5 ± 1 | 8.8 | 44 ± 2 | 
8 | C1CCNCC1.N.[Cl][Pt][Cl] [trans-[PtCl2(NH3)(piperidine)]] | 5 ± 0.7 | 4.0 | 20 ± 2 | 
9 | CCC(C)N.N.[Cl][Pt][Cl] (stereo not drawn) [trans-[PtCl2(NH3)(sec-butylamine)]] | 2.1 | 7.4 | 15.5 | 
